Data as given in ChEMBL document CHEMBL1130474, “Conformationally restricted arginine analogues as inhibitors of human nitric oxide synthase” (Bioorg Med Chem Lett, 1997).

Legend:
[1] = target: T1, Nitric oxide synthase 3 (Homo sapiens, UniProt P29474); test: Inhibitory constant for the inhibition of human Endothelial nitric oxide synthase
T1 sequence (P29474 whole entry): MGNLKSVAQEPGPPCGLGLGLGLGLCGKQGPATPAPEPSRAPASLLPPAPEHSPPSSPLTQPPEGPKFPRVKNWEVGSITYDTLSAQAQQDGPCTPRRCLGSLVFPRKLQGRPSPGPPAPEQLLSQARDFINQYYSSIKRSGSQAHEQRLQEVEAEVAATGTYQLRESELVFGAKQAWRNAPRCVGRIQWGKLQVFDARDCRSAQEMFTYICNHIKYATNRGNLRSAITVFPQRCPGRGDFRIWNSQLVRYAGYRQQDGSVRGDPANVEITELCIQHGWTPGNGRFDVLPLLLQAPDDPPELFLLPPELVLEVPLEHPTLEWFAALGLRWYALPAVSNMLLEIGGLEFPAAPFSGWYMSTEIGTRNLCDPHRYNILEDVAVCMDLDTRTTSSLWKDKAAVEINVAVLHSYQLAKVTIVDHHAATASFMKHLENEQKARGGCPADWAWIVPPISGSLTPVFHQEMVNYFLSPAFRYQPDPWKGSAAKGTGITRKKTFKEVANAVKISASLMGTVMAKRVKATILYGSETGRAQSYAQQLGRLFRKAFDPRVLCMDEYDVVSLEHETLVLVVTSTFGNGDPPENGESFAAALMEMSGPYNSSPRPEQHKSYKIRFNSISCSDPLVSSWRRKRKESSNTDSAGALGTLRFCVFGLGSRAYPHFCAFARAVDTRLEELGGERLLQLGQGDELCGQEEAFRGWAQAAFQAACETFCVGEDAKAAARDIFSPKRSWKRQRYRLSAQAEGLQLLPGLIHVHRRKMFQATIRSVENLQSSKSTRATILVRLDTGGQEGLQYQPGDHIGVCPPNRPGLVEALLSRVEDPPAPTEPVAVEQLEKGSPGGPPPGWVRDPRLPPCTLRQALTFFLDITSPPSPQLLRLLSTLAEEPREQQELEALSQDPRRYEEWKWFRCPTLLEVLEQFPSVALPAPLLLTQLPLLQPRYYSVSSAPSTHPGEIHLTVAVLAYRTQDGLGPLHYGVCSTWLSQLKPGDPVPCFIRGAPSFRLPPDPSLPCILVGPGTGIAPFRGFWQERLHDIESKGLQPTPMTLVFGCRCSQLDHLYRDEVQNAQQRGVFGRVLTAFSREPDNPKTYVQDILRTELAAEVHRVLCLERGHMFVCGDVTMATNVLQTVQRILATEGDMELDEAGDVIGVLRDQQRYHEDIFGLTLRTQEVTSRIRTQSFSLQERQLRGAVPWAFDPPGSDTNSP

[2] = target: Nitric oxide synthase 1 (Homo sapiens, UniProt P29475); test: Inhibitory constant for the inhibition of human Neuronal nitric oxide synthase
[3] = target: Nitric oxide synthase, inducible (Homo sapiens, UniProt P35228); test: Inhibitory constant for the inhibition of human Inducible nitric oxide synthase
Chain of Nitric oxide synthase, inducible (P35228 whole entry): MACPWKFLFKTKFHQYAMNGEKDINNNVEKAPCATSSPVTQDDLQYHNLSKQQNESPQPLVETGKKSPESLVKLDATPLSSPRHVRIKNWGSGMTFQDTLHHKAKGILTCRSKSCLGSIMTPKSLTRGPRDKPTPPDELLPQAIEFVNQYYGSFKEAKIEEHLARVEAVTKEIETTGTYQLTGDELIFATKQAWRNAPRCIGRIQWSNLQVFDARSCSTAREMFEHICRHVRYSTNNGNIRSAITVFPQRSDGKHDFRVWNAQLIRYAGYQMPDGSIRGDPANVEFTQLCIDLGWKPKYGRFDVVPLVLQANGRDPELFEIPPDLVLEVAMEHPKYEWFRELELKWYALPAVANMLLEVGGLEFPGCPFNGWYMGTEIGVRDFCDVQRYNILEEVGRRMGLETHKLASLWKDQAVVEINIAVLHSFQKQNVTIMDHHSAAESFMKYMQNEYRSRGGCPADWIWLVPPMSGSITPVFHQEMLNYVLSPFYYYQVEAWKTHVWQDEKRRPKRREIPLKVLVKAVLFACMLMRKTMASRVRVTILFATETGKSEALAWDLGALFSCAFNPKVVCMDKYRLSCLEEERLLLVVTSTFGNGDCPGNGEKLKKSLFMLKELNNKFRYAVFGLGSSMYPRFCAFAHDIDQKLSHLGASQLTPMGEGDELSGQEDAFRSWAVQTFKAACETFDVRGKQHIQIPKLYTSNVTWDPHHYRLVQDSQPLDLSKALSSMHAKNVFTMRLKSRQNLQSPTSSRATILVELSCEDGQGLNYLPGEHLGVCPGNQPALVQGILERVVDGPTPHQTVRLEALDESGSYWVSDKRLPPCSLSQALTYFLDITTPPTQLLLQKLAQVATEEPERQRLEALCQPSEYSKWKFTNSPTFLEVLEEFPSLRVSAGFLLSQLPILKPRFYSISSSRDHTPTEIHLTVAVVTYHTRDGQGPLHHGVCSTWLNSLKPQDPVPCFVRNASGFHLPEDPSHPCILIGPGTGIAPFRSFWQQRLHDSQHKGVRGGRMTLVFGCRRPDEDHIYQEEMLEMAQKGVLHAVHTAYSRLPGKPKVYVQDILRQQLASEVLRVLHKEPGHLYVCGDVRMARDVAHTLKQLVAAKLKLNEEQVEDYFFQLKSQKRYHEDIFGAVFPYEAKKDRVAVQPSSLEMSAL

Chain of Nitric oxide synthase 1 (P29475 whole entry): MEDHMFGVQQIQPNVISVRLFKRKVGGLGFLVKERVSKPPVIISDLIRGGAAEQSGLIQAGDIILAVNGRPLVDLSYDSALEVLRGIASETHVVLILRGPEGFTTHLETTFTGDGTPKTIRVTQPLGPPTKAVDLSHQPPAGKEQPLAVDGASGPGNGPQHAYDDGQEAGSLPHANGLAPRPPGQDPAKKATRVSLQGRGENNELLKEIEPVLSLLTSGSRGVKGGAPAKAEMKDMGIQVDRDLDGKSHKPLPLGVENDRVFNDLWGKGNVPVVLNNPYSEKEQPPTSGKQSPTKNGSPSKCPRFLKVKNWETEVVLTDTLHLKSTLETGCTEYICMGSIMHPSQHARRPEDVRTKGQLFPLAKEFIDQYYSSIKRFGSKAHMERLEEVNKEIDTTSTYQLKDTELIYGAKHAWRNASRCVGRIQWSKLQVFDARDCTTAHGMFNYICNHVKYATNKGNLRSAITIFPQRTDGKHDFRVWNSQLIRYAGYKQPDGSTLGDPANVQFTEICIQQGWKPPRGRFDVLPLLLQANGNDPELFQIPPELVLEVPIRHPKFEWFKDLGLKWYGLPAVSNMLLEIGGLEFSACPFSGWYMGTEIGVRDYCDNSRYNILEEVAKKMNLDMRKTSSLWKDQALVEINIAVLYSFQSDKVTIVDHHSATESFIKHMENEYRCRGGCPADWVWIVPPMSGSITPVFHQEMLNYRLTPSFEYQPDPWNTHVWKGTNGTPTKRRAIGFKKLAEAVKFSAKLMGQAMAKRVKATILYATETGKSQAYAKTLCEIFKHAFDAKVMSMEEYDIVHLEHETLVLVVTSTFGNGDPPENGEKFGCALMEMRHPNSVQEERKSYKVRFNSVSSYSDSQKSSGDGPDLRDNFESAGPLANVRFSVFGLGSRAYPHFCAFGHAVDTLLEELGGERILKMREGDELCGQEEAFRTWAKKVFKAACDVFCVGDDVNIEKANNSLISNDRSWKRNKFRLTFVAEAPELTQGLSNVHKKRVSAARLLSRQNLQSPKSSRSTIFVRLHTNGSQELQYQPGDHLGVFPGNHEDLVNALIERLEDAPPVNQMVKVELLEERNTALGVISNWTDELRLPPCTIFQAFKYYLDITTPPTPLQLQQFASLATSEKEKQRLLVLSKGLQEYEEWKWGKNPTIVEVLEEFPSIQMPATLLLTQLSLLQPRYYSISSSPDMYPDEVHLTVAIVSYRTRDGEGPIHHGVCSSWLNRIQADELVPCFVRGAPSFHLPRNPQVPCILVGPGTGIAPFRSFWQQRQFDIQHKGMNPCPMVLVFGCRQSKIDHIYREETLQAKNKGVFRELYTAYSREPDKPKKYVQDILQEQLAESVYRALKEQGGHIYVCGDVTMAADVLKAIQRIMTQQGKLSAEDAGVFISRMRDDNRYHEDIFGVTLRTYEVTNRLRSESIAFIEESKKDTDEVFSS

SMILES | Ki [1] | Ki [2] | Ki [3]
NC(N)=Nc1ccccc1CC(N)C(=O)O (stereo not given) | 250 nM | 370 nM | 2600 nM
CNC(N)=Nc1cccc(CC(N)C(=O)O)c1 (stereo not given) | 8800 nM | 8400 nM | 96000 nM
CC(=N)Nc1cccc(CC(N)C(=O)O)c1 (stereo not given) | 39000 nM | 29000 nM | 82000 nM
C/N=C(/N)Nc1ccccc1CC(N)C(=O)O (stereo not given) | 270 nM | 410 nM | 600 nM
N=C(N)Nc1cccc(CC(N)C(=O)O)c1 (stereo not given) | 46000 nM | 44000 nM | 100000 nM
CC(=N)Nc1ccccc1CC(N)C(=O)O (stereo not given) | 1600 nM | 1300 nM | 1900 nM
CC(=N)NCCC[C@H](N)C(=O)O [L-NIO] | 810 nM |  | 340 nM
